# In patent EP0603240B1, “SAFENING HERBICIDAL PYRAZOLYLSULFONYLUREAS” (priority 1991, dated 1993):
# Experiments:
# Format in all cases: in vivo
# [1] = tested on: velvetleaf (Abutilon theophrasti); experiment: Example 5, Procedure I: Herbicide No. 1 + alachlor (No. 7) with Antidote Nos. 15 and 16
# Procedure: (§1) Containers were filled and compacted with a fumigated silt loam top soil to a depth of about 1.3 cm from the top of the container. A first container was designated as an untreated control, a second container was designated as a herbicide control, and a third container was designated as a herbicide + antidote test container. Each of the containers was seeded with a crop species. A measured amount of herbicide dispersed or dissolved in acetone was applied to a measured quantity of soil. To this same quantity of soil treated with herbicide, there was added a measured amount of antidote dispersed or dissolved in acetone. The quantity of soil treated with the herbicide and antidote was thoroughly mixed to incorporate the herbicide and antidote in the soil uniformly. The seed bed in the third container of soil was covered with the soil treated with the herbicide and antidote and the container was leveled. For each test series, the seed beds of the first and second containers were likewise covered by soil layers. the cover layer of the first container was not treated with herbicide or antidote.
# (§2) The containers were then placed on a bench in a greenhouse and sub-irrigated as required for the duration of the test. […] Plant response is measured in terms of percent injury. Antidote efficacy is indicated as the difference in plant injury by the herbicide(s) without the antidote and with the antidote.
# (§3) In the series of greenhouse tests described below, for routine screening purposes the herbicide/antidote compositions were tested in crop/weed combinations involving corn as the crop and either or both of the weeds barnyardgrass (Echinochloa crusgalli), a monocotyledonous weed, and velvetleaf (Abutilon theophrasti), a dicotyledonous weed. In the tables below, these weeds are indicated by the symbols "BYG" and "VL", respectively.
# (§4) This example describes tests with Antidote Nos. 15 and 16 to safen Herbicide No. 1 according to Procedure I using corn and the weeds barnyardgrass and velvetleaf as the test plants.
# (§5) In the tests described in this example, the same procedure described in Example 4 was performed simultaneously therewith and under the same conditions, except that a co-herbicide, alachlor, was included in the same composition with Herbicide No. 1 and Antidote Nos. 15 and 16. Alachlor (Herbicide No. 7 herein) is the active ingredient in the commercial product LASSO® herbicide.
# [2] = tested on: barnyardgrass (Echinochloa crusgalli); experiment: as above
# Procedure: as §1, §2, §3, §4, §5
# [3] = tested on: velvetleaf (Abutilon theophrasti); experiment: Example 4, Procedure I: Antidote Nos. 15 and 16 against Herbicide No. 1
# Procedure: as §1, §2, §3, §4
# [4] = tested on: barnyardgrass (Echinochloa crusgalli); experiment: as above
# Procedure: as §1, §2, §3, §4
# corn [5] = experiment: as above
# Procedure: as §1, §2, §4
# corn [6] = experiment: Example 5, Procedure I: Herbicide No. 1 + alachlor (No. 7) with Antidote Nos. 15 and 16
# Procedure: as §1, §2, §4, §5
# [7] = tested on: barnyardgrass (Echinochloa crusgalli); experiment: Example 3, Procedure I: antidotes against Herbicide No. 1
# Procedure: as §1, §2, §3
# (§6) This example details the results of tests with Antidote Nos. 12, 15 and 16 to safen Herbicide No. 1 over application rates ranging from 4.48 kg/ha down to 0.56 kg/ha, in corn in the presence of barnyardgrass. Procedure I described above was used in these tests.
# corn [8] = experiment: as above
# Procedure: as §1, §2, §6
# corn [9] = experiment: Example 12, Procedure II: Herbicide No. 1 + acetochlor (No. 6) with thirteen antidotes; conditions: Herbicide No.6 2.24 kg/ha alone, no antidote
# Procedure: as §1, §2
# (§7) This procedure is the same as Procedure I, but modified in the manner that after incorporation of the chemicals (herbicide and antidote) the containers with the covered seedbed were treated with an initial overhead irrigation equivalent to 0.6 cm rainfall, then subsequently sub-irrigated as required on greenhouse benches.
# This example was designed to investigate the efficacy of thirteen different antidotes from different classes of chemistry as safeners against compositions of Herbicide No. 1 and acetochlor (Herbicide No. 6) as co-herbicide. Acetochlor is the active ingredient in the commercial herbicides GUARDIAN® and WENNER®.
# The test procedure used in this example was Procedure II described above.
# corn [10] = experiment: Example 13, Procedure II: Herbicide No. 1 + acetochlor (No. 6) with dichloroacetamide antidotes; conditions: Herbicide No.6 4.48 kg/ha alone, no antidote
# Procedure: as §1, §2, §7
# In this example a plurality of dichloroacetamide antidotes were tested for their safening efficacy against a herbicidal composition comprising Herbicide No. 1 and a co-herbicide, acetochlor (Herbicide No. 6) in corn in the presence of velvetleaf. The procedure used in this example was Procedure II above.
# corn [11] = experiment: Example 17, Procedure II: Herbicide No. 1 + vernolate (No. 11) with antidotes; conditions: Table 17
# Procedure: as §1
# as §2, with “antidote. […]” for “antidote.”
# corn [12] = experiment: Example 1, greenhouse Procedure II: antidotes against Herbicide No. 1; conditions: Herbicide No. 1, Table 1
# Procedure: as §1, §2, §7, §3
# This example was designed to investigate the antidotal efficacy of a plurality of antidotes against Herbicide No. 1 in corn in the presence of barnyard grass and velvetleaf. The antidotes used in this example were Antidote Nos. 1-10, 12, 13 and 15.
# The test in this example was conducted as described above for Procedure II. The antidotes were applied to the soil cover layer by pipet after spraying on the herbicide followed by incorporation and simulated rain.
# [13] = Herbicide No.1 4.48 + No.7 0.56 kg/ha + antidote 0.56 kg/ha
# [14] = Herbicide No.1 4.48 + No.7 0.56 kg/ha + antidote 2.24 kg/ha
# [15] = Herbicide No.1 4.48 + No.7 2.24 kg/ha + antidote 0.56 kg/ha
# [16] = Herbicide No.1 4.48 + No.7 2.25 kg/ha + antidote 2.24 kg/ha
# [17] = Herbicide No.1 6.72 + No.7 0.56 kg/ha + antidote 0.56 kg/ha
# [18] = Herbicide No.1 6.72 + No.7 0.56 kg/ha + antidote 2.24 kg/ha
# [19] = Herbicide No.1 6.72 + No.7 2.24 kg/ha + antidote 0.56 kg/ha
# [20] = Herbicide No.1 6.72 + No.7 2.25 kg/ha + antidote 2.24 kg/ha
# [21] = Herb. No. 1 4.48 kg/ha + antidote 0.56 kg/ha
# [22] = Herb. No. 1 4.48 kg/ha + antidote 2.24 kg/ha
# [23] = Herb. No. 1 6.72 kg/ha + antidote 0.56 kg/ha
# [24] = Herb. No. 1 6.72 kg/ha + antidote 2.24 kg/ha
# [25] = Herb. No. 1 0.56 kg/ha + antidote 0.56 kg/ha
# [26] = Herb. No. 1 0.56 kg/ha + antidote 2.24 kg/ha
# [27] = Herb. No. 1 0.56 kg/ha + antidote 8.96 kg/ha
# [28] = Herb. No. 1 1.12 kg/ha + antidote 0.56 kg/ha
# [29] = Herb. No. 1 1.12 kg/ha + antidote 2.24 kg/ha
# [30] = Herb. No. 1 1.12 kg/ha + antidote 8.96 kg/ha
# [31] = Herb. No. 1 2.24 kg/ha + antidote 0.56 kg/ha
# [32] = Herb. No. 1 2.24 kg/ha + antidote 2.24 kg/ha
# [33] = Herb. No. 1 2.24 kg/ha + antidote 8.96 kg/ha
# [34] = Herb. No. 1 4.48 kg/ha + antidote 8.96 kg/ha
# [35] = antidote 8.96 kg/ha alone, no herbicide
smiles,measurement,setting,value
CC1(C)OC(c2cccnc2)CN1C(=O)C(Cl)Cl (stereo not drawn) [compound 16],% Injury VL,[1]; [13],95%
same,% Injury VL,[1]; [14],95%
same,% Injury VL,[1]; [15],98%
same,% Injury VL,[1]; [16],98%
same,% Injury VL,[1]; [17],98%
same,% Injury VL,[1]; [18],95%
same,% Injury VL,[1]; [19],98%
same,% Injury VL,[1]; [20],99%
same,% Injury BYG,[2]; [13],100%
same,% Injury BYG,[2]; [14],100%
same,% Injury BYG,[2]; [15],100%
same,% Injury BYG,[2]; [16],100%
same,% Injury BYG,[2]; [17],95%
same,% Injury BYG,[2]; [18],100%
same,% Injury BYG,[2]; [19],100%
same,% Injury BYG,[2]; [20],100%
same,% Injury VL,[3]; [21],95%
same,% Injury VL,[3]; [22],95%
same,% Injury VL,[3]; [23],95%
same,% Injury VL,[3]; [24],95%
same,% Injury BYG,[4]; [21],95%
same,% Injury BYG,[4]; [22],95%
same,% Injury BYG,[4]; [23],95%
same,% Injury BYG,[4]; [24],95%
same,% Injury Corn,corn [5]; [21],70%
same,% Injury Corn,corn [5]; [22],15%
same,% Injury Corn,corn [5]; [23],35%
same,% Injury Corn,corn [5]; [24],30%
same,% Injury Corn,corn [6]; [13],48%
same,% Injury Corn,corn [6]; [14],18%
same,% Injury Corn,corn [6]; [15],53%
same,% Injury Corn,corn [6]; [16],40%
same,% Injury Corn,corn [6]; [17],43%
same,% Injury Corn,corn [6]; [18],55%
same,% Injury Corn,corn [6]; [19],80%
same,% Injury Corn,corn [6]; [20],55%
same,% Injury BYG,[7]; [25],65%
same,% Injury BYG,[7]; [26],60%
same,% Injury BYG,[7]; [27],50%
same,% Injury BYG,[7]; [28],70%
same,% Injury BYG,[7]; [29],80%
same,% Injury BYG,[7]; [30],85%
same,% Injury BYG,[7]; [31],85%
same,% Injury BYG,[7]; [32],90%
same,% Injury BYG,[7]; [33],80%
same,% Injury BYG,[7]; [21],75%
same,% Injury BYG,[7]; [22],80%
same,% Injury BYG,[7]; [34],95%
same,% Injury BYG,[7]; [35],0%
same,% Injury Corn,corn [8]; [25],0%
same,% Injury Corn,corn [8]; [26],0%
same,% Injury Corn,corn [8]; [27],0%
same,% Injury Corn,corn [8]; [28],0%
same,% Injury Corn,corn [8]; [29],0%
same,% Injury Corn,corn [8]; [30],0%
same,% Injury Corn,corn [8]; [31],5%
same,% Injury Corn,corn [8]; [32],0%
same,% Injury Corn,corn [8]; [33],0%
same,% Injury Corn,corn [8]; [21],5%
same,% Injury Corn,corn [8]; [22],5%
same,% Injury Corn,corn [8]; [34],5%
same,% Injury Corn,corn [8]; [35],0%
"CC1(C)OC(c2cccnc2)CN1C(=O)C(Cl)Cl (stereo not drawn) [Antidote No. 16, Pyridine, 3-[3-(dichloroacetyl)-2,2-dimethyl-5-oxazolidinyl]-]","safening of corn, assessment in words","corn [5]; Herbicide No. 1, Table 4",substantial safening of Herbicide No. 1
same,"safening of corn, assessment in words","corn [6]; Herbicide Nos. 1 and 7, Table 5",substantial safening of corn
same,"safening of corn, assessment in words","corn [8]; Herbicide No. 1, Table 3",excellent protection for corn
CCOCN(C(=O)CCl)c1c(C)cccc1CC [Herbicide No.6],% Injury Corn,corn [9],25%
same,% Injury Corn,corn [10],50%
"O=C(C(Cl)Cl)N1CCCC12CCCC2 [Antidote No. 9, 1-Azaspiro[4,4]noname, 1-(dichloroacetyl)-]","safening of corn, assessment in words",corn [11],best overall safening performance
same,"safening of corn, assessment in words",corn [12],best safening effect across quadruple treatments
